# Columns and labels:
# Assay in all cases: Test C greenhouse herbicide test, pre- and postemergence
# Type in all cases: in vivo
# [1] = system: barnyardgrass (Echinochloa crus-galli)
# How it was run: (§1)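 Preemergence: seeds sown in a loam soil–sand blend and sprayed with test chemicals in a non-phytotoxic solvent mixture containing surfactant. Postemergence: plants grown in peat-based medium and treated at 2 to 18 cm (1- to 4-leaf stage). After 13 to 15 d in a greenhouse, injury was visually rated 0–100 against controls.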
# [2] = system: blackgrass (Alopecurus myosuroides)
# How it was run: as §1
# corn (Zea mays) = system: corn (Zea mays)
# How it was run: as §1
# [3] = system: crabgrass, large (large crabgrass, Digitaria sanguinalis)
# How it was run: as §1
# [4] = system: foxtail, giant (giant foxtail, Setaria faberii)
# How it was run: as §1
# [5] = system: galium (catchweed bedstraw, Galium aparine)
# How it was run: as §1
# [6] = system: johnsongrass (Sorghum halepense)
# How it was run: as §1
# [7] = system: lambsquarters (Chenopodium album)
# How it was run: as §1
# [8] = system: morningglory (Ipomoea coccinea)
# How it was run: as §1
# [9] = system: nutsedge, yellow (yellow nutsedge, Cyperus esculentus)
# How it was run: as §1
# [10] = system: oilseed rape (Brassica napus)
# How it was run: as §1
# [11] = system: pigweed (Amaranthus retroflexus)
# How it was run: as §1
# [12] = system: ragweed (common ragweed, Ambrosia elatior)
# How it was run: as §1
# [13] = system: ryegrass, Italian (Italian ryegrass, Lolium multiflorum)
# How it was run: as §1
# [14] = system: velvetleaf (Abutilon theophrasti)
# How it was run: as §1
# [15] = system: waterhemp (common waterhemp, Amaranthus rudis)
# How it was run: as §1
# [16] = Postemergence, 31 g ai/ha, 0 to 100 scale (0 no effect, 100 complete control)
# [17] = Postemergence, 125 g ai/ha, scale 0 to 100, 0 is no effect, 100 is complete control
# [18] = Postemergence, 250 g ai/ha, scale 0 to 100, 0 no effect, 100 complete control, 13 to 15 d
# [19] = Preemergence, 31 g ai/ha, scale 0 to 100, 0 is no effect, 100 is complete control
# [20] = Preemergence, 62 g ai/ha, scale 0 to 100, 0 is no effect, 100 is complete control
# [21] = Preemergence, 125 g ai/ha, scale 0 to 100, 0 is no effect, 100 is complete control
# [22] = Preemergence, 250 g ai/ha, scale 0 to 100 (0 no effect, 100 complete control)
# [23] = postemergence, 62 g ai/ha, scale 0 to 100, 0 no effect, 100 complete control
compound,measurement,setting,value
CCOC(=O)Oc1c(C)nn(C)c(=O)c1-c1c(C)ccc2ccccc12 [Compound 73],Barnyardgrass plant response rating,[1]; [16],25
same,"Plant response rating, Barnyardgrass",[1]; [17],55
same,"Plant response rating, Barnyardgrass",[1]; [18],60
same,"Plant response rating, Barnyardgrass",[1]; [19],10
same,"Plant response rating, Barnyardgrass",[1]; [20],25
same,"Plant response rating, Barnyardgrass",[1]; [21],70
same,Barnyardgrass plant response rating,[1]; [22],85
same,Barnyardgrass plant response rating,[1]; [23],40
same,Blackgrass plant response rating,[2]; [16],40
same,"Plant response rating, Blackgrass",[2]; [17],90
same,"Plant response rating, Blackgrass",[2]; [18],90
same,"Plant response rating, Blackgrass",[2]; [19],50
same,"Plant response rating, Blackgrass",[2]; [20],80
same,"Plant response rating, Blackgrass",[2]; [21],85
same,Blackgrass plant response rating,[2]; [22],90
same,Blackgrass plant response rating,[2]; [23],85
same,Corn plant response rating,corn (Zea mays); [16],5
same,"Plant response rating, Corn",corn (Zea mays); [17],20
same,"Plant response rating, Corn",corn (Zea mays); [18],60
same,"Plant response rating, Corn",corn (Zea mays); [19],0
same,"Plant response rating, Corn",corn (Zea mays); [20],0
same,"Plant response rating, Corn",corn (Zea mays); [21],5
same,Corn plant response rating,corn (Zea mays); [22],25
same,Corn plant response rating,corn (Zea mays); [23],20
same,"Crabgrass, Large plant response rating",[3]; [16],30
same,"Plant response rating, Crabgrass, Large",[3]; [17],60
same,"Plant response rating, Crabgrass, Large",[3]; [18],75
same,"Plant response rating, Crabgrass, Large",[3]; [19],0
same,"Plant response rating, Crabgrass, Large",[3]; [20],30
same,"Plant response rating, Crabgrass, Large",[3]; [21],75
same,"Crabgrass, Large plant response rating",[3]; [22],75
same,"Crabgrass, Large plant response rating",[3]; [23],35
same,"Foxtail, Giant plant response rating",[4]; [16],40
same,"Plant response rating, Foxtail, Giant",[4]; [17],75
same,"Plant response rating, Foxtail, Giant",[4]; [18],85
same,"Plant response rating, Foxtail, Giant",[4]; [19],55
same,"Plant response rating, Foxtail, Giant",[4]; [20],70
same,"Plant response rating, Foxtail, Giant",[4]; [21],85
same,"Foxtail, Giant plant response rating",[4]; [22],95
same,"Foxtail, Giant plant response rating",[4]; [23],65
same,Galium plant response rating,[5]; [16],90
same,"Plant response rating, Galium",[5]; [17],95
same,"Plant response rating, Galium",[5]; [18],95
same,"Plant response rating, Galium",[5]; [19],90
same,"Plant response rating, Galium",[5]; [20],98
same,"Plant response rating, Galium",[5]; [21],95
same,Galium plant response rating,[5]; [22],98
same,Galium plant response rating,[5]; [23],90
same,Johnsongrass plant response rating,[6]; [16],5
same,"Plant response rating, Johnsongrass",[6]; [17],40
same,"Plant response rating, Johnsongrass",[6]; [18],50
same,"Plant response rating, Johnsongrass",[6]; [19],0
same,"Plant response rating, Johnsongrass",[6]; [20],10
same,"Plant response rating, Johnsongrass",[6]; [21],35
same,Johnsongrass plant response rating,[6]; [22],55
same,Johnsongrass plant response rating,[6]; [23],5
same,Lambsquarters plant response rating,[7]; [16],90
same,"Plant response rating, Lambsquarters",[7]; [17],95
same,"Plant response rating, Lambsquarters",[7]; [18],98
same,"Plant response rating, Lambsquarters",[7]; [19],75
same,"Plant response rating, Lambsquarters",[7]; [20],70
same,"Plant response rating, Lambsquarters",[7]; [21],80
same,Lambsquarters plant response rating,[7]; [22],90
same,Lambsquarters plant response rating,[7]; [23],95
same,Morningglory plant response rating,[8]; [16],75
same,"Plant response rating, Morningglory",[8]; [17],95
same,"Plant response rating, Morningglory",[8]; [18],95
same,"Plant response rating, Morningglory",[8]; [19],85
same,"Plant response rating, Morningglory",[8]; [20],90
same,"Plant response rating, Morningglory",[8]; [21],90
same,Morningglory plant response rating,[8]; [22],95
same,Morningglory plant response rating,[8]; [23],90
same,"Nutsedge, Yellow plant response rating",[9]; [16],80
same,"Plant response rating, Nutsedge, Yellow",[9]; [17],80
same,"Plant response rating, Nutsedge, Yellow",[9]; [18],90
same,"Plant response rating, Nutsedge, Yellow",[9]; [19],0
same,"Plant response rating, Nutsedge, Yellow",[9]; [20],35
same,"Plant response rating, Nutsedge, Yellow",[9]; [21],50
same,"Nutsedge, Yellow plant response rating",[9]; [22],95
same,"Nutsedge, Yellow plant response rating",[9]; [23],80
same,Oilseed Rape plant response rating,[10]; [16],10
same,"Plant response rating, Oilseed Rape",[10]; [17],70
same,"Plant response rating, Oilseed Rape",[10]; [18],85
same,"Plant response rating, Oilseed Rape",[10]; [19],90
same,"Plant response rating, Oilseed Rape",[10]; [20],85
same,"Plant response rating, Oilseed Rape",[10]; [21],90
same,Oilseed Rape plant response rating,[10]; [22],85
same,Oilseed Rape plant response rating,[10]; [23],70
same,Pigweed plant response rating,[11]; [16],80
same,"Plant response rating, Pigweed",[11]; [17],95
same,"Plant response rating, Pigweed",[11]; [18],98
same,"Plant response rating, Pigweed",[11]; [19],95
same,"Plant response rating, Pigweed",[11]; [20],100
same,"Plant response rating, Pigweed",[11]; [21],100
same,Pigweed plant response rating,[11]; [22],98
same,Pigweed plant response rating,[11]; [23],85
same,Ragweed plant response rating,[12]; [16],85
same,"Plant response rating, Ragweed",[12]; [17],90
same,"Plant response rating, Ragweed",[12]; [18],90
same,"Plant response rating, Ragweed",[12]; [19],85
same,"Plant response rating, Ragweed",[12]; [20],95
same,"Plant response rating, Ragweed",[12]; [21],95
same,Ragweed plant response rating,[12]; [22],98
same,Ragweed plant response rating,[12]; [23],90
same,"Ryegrass, Italian plant response rating",[13]; [16],85
same,"Plant response rating, Ryegrass, Italian",[13]; [17],90
same,"Plant response rating, Ryegrass, Italian",[13]; [18],90
same,"Plant response rating, Ryegrass, Italian",[13]; [19],75
same,"Plant response rating, Ryegrass, Italian",[13]; [20],90
same,"Plant response rating, Ryegrass, Italian",[13]; [21],90
same,"Ryegrass, Italian plant response rating",[13]; [22],90
same,"Ryegrass, Italian plant response rating",[13]; [23],90
same,Velvetleaf plant response rating,[14]; [16],40
same,"Plant response rating, Velvetleaf",[14]; [17],85
same,"Plant response rating, Velvetleaf",[14]; [18],90
same,"Plant response rating, Velvetleaf",[14]; [19],25
same,"Plant response rating, Velvetleaf",[14]; [20],80
same,"Plant response rating, Velvetleaf",[14]; [21],85
same,Velvetleaf plant response rating,[14]; [22],85
same,Velvetleaf plant response rating,[14]; [23],85
same,Waterhemp plant response rating,[15]; [16],75
same,"Plant response rating, Waterhemp",[15]; [17],85
same,"Plant response rating, Waterhemp",[15]; [18],100
same,"Plant response rating, Waterhemp",[15]; [19],85
same,"Plant response rating, Waterhemp",[15]; [20],90
same,"Plant response rating, Waterhemp",[15]; [21],90
same,Waterhemp plant response rating,[15]; [22],95
same,Waterhemp plant response rating,[15]; [23],75

# From patent US10597388B2, “Pyridazinone herbicides” (FMC CORPORATION, priority 2014, dated 2020)
